Measured values from patent publication US6673793B2, “Oxazinoquinolones useful for the treatment of viral infections” (Pharmacia & Upjohn Co., priority 2000, dated 2004).
Where “and” joins values, the source holds several entries; their conditions need not be identical. Equal values may be shown once. Where a name gives a salt, the structure may show the parent alone.

Biological target: T1, CMV polymerase (Human cytomegalovirus, UniProt P08546)
T1 construct: made in house; host or cells: recombinant baculovirus-infected SF-9 cells
Test: HCMV polymerase assay, scintillation proximity assay (SPA), modified version
Assay type: biochemical
Settings: modified HCMV polymerase SPA assay: compounds diluted in 100% DMSO, 4.5 mM DTT in polymerase buffer, different lot of CMV polymerase; read-out: CMV polymerase IC50
Experimental: The HCMV polymerase assay is performed using a scintillation proximity assay (SPA) as described in several references, such as N. D. Cook, et al., Pharmaceutical Manufacturing International, pages 49-53 (1992); K. Takeuchi, Laboratory Practice, September issue (1992); U.S. Pat. No. 4,568,649 (1986); which are incorporated by reference herein. Reactions are performed in 96-well plates. The assay is conducted in 100 μl volume with 5.4 mM HEPES (pH 7.5), 11.7 mM KCl, 4.5 mM MgCl2, 0.36 mg/ml BSA, and 90 nM ^3H-dTTP. Assays are run with and without CHAPS, (3-[(3-Cholamidopropyl)-dimethylammonio]-1-propane-sulfonate) at a final concentration of 2 mM. HCMV polymerase is diluted in enzyme dilution buffer containing 50% glycerol, 250 mM NaCl, 10 mM HEPES (pH 7.5), 100 μg/ml BSA, and 0.01% sodium azide. The HCMV polymerase, which is expressed in recombinant baculovirus-infected SF-9 cells and purified according to literature procedures, is added at 10% (or 10 μl) of the final reaction volume, i.e., 100 μl. Compounds are diluted in 50% DMSO and 10 μl are added to each well. Control wells contain an equivalent concentration of DMSO. Unless noted otherwise, reactions are initiated via the addition of 6 nM biotinylated poly(dA)-oligo(dT) template/primer to reaction mixtures containing the enzyme, substrate, and compounds of interest. Plates are incubated in a 25 C. or 37 C. H2O bath and terminated via the addition of 40 μl/reaction of 0.5 M EDTA (pH 8) per well. Reactions are terminated within the time-frame during which substrate incorporation is linear and varied depending upon the enzyme and conditions used, i.e., 30 min. for HCMV polymerase. Ten μl of streptavidin-SPA beads (20 mg/ml in PBS/10% glycerol) are added following termination of the reaction. Plates are incubated 10 min. at 37 C., then equilibrated to room temperature, and counted on a Packard Topcount. Linear regressions are performed and IC50's are calculated using computer software.
A modified version of the above HCMV polymerase assay is performed as described above, but with the following changes: Compounds are diluted in 100% DMSO until final dilution into assay buffer. In the previous assay, compounds are diluted in 50% DMSO. 4.5 mM dithiotherotol (DTT) is added to the polymerase buffer.

T1 sequence (P08546 whole entry): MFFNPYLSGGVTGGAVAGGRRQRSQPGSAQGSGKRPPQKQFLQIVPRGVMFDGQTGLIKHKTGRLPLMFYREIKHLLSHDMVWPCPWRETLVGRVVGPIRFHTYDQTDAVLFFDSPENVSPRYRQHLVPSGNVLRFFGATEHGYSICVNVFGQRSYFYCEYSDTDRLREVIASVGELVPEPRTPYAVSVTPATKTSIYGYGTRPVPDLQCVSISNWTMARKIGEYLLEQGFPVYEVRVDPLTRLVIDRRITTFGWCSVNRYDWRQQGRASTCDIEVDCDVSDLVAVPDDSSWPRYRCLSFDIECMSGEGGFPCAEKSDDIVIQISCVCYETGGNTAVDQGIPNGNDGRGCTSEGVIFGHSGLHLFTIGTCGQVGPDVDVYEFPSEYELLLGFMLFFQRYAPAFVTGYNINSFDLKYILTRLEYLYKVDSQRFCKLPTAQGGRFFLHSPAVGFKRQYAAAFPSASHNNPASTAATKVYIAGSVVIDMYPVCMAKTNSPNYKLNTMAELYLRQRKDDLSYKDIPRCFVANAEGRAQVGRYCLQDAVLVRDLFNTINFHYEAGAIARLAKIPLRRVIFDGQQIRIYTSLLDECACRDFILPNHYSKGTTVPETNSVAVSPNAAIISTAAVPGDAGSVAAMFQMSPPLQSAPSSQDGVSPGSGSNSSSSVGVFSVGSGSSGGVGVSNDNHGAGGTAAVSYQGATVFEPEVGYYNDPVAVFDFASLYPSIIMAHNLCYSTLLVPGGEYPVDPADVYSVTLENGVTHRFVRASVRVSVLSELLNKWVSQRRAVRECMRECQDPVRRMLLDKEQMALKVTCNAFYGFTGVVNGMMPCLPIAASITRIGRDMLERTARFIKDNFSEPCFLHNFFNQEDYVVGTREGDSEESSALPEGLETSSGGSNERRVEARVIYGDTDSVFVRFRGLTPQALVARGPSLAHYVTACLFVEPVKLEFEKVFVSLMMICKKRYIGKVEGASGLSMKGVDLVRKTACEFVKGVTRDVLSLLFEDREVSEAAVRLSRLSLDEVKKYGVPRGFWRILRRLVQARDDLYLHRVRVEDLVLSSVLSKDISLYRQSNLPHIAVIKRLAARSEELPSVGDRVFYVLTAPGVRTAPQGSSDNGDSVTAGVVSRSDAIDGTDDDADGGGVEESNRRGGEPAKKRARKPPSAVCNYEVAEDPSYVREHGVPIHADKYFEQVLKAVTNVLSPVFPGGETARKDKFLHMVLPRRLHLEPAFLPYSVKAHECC

Row | Compound | IC50
1 | O=C(NCc1ccc(Cl)cc1)c1cn2c3c(cc(CN4CCOCC4)cc3c1=O)OC(c1ccccc1)C2 (stereo not drawn) [Example 27, N-(4-Chlorobenzyl)-9-(4-morpholinylmethyl)-7-oxo-2-phenyl-2,3-dihydro-7H-[1,4]oxazino[2,3,4-ij]quinoline-6-carboxamide] | 920 nM
2 | O=C(NCc1ccc(Cl)cc1)c1cn2c3c(cc(CN4CCOCC4)cc3c1=O)OC(CNCc1ccccn1)C2 (stereo not drawn) [Example 10, N-(4-Chlorobenzyl)-9-(4-morpholinylmethyl)-7-oxo-2-{[(2-pyridinylmethyl)amino]methyl}-2,3-dihydro-7H-[1,4]oxazino[2,3,4-ij]quinoline-6-carboxamide] | 620 nM
3 | O=C(NCc1ccc(Cl)cc1)c1cn2c3c(cc(CN4CCOCC4)cc3c1=O)OCC2c1ccccc1 (stereo not drawn) [Example 29, N-(4-Chlorobenzyl)-9-(4-morpholinylmethyl)-7-oxo-3-phenyl-2,3-dihydro-7H-[1,4]oxazino[2,3,4-ij]quinoline-6-carboxamide] | 1000 nM
4 | O=C(NCc1ccc(Cl)cc1)c1cn2c3c(cc(CN4CCOCC4)cc3c1=O)OC(CNCc1cccnc1)C2 (single isomer, unassigned) [Example 23, N-(4-Chlorobenzyl)-9-(4-morpholinylmethyl)-7-oxo-2-(R or S)-{[3-pyridinylmethyl)amino]methyl}-2,3-dihydro-7H-[1,4]oxazino[2,3,4-ij]quinoline-6-carboxamide] | 1100 nM
5 | CN(CCS(=O)(=O)O)C(=O)CCCCCCC(=O)OCC1Cn2cc(C(=O)NCc3ccc(Cl)cc3)c(=O)c3cc(CN4CCOCC4)cc(c32)O1 (stereo not drawn) [Example 25, 2-[(8-{[6-{[(4-Chlorobenzyl)amino]carbonyl}-9-(4-morpholinylmethyl)-7-oxo-2,3-dihydro-7H-[1,4]oxazino[2,3,4-ij]quinolin-2-yl]methoxy}-8-oxooctanoyl)(methyl)amino]ethanesulfonic acid sodium salt] | 1300 nM
6 | O=C(NCc1ccc(Cl)cc1)c1cn2c3c(cc(CN4CCOCC4)cc3c1=O)OC(CO)C2 (single isomer, unassigned) [Example 21, N-(4-Chlorobenzyl)-2-(R or S)-(hydroxymethyl)-9-(4-morpholinylmethyl)-7-oxo-2,3-dihydro-7H-[1,4]oxazino[2,3,4-ij]quinoline-6-carboxamide] | 670 nM
7 | O=C(NCc1ccc(Cl)cc1)c1cn2c3c(cc(CN4CCOCC4)cc3c1=O)OC(CNCc1ccc(Cl)cc1)C2 (stereo not drawn) [Example 56, N-(4-Chlorobenzyl)-2-{[(4-chlorobenzyl)amino]methyl}-9-(morpholin-4-ylmethyl)-7-oxo-2,3-dihydro-7H-[1,4]oxazino[2,3,4-ij]quinoline-6-carboxamide] | 660 nM
8 | O=C(NCc1ccc(Cl)cc1)c1cn2c3c(cc(CN4CCOCC4)cc3c1=O)OC(c1cccnc1)C2 (stereo not drawn) [Example 34, N-(4-Chlorobenzyl)-9-(4-morpholinylmethyl)-7-oxo-2-(3-pyridinyl)-2,3-dihydro-7H-[1,4]oxazino[2,3,4-ij]quinoline-6-carboxamide] | 480 nM
9 | O=C(NCc1ccc(Cl)cc1)c1cn2c3c(cc(CN4CCOCC4)cc3c1=O)OC(CSCCO)C2 (stereo not drawn) [Example 16, N-(4-Chlorobenzyl)-2-{[(2-hydroxyethyl)sulfanyl]methyl}-9-(4-morpholinylmethyl)-7-oxo-2,3-dihydro-7H-[1,4]oxazino[2,3,4-ij]quinoline-6-carboxamide] | 420 nM
10 | O=C(NCc1ccc(Cl)cc1)c1cn2c3c(cc(CN4CCOCC4)cc3c1=O)OC(CN(CCO)CCO)C2 (stereo not drawn) [Example 9, 2-{[bis(2-Hydroxyethyl)amino]methyl}-N-(4-chlorobenzyl)-9-(4-morpholinylmethyl)-7-oxo-2,3-dihydro-7H-[1,4]oxazino[2,3,4-ij]quinoline-6-carboxamide] | 590 nM
11 | O=C(NCc1ccc(Cl)cc1)c1cn2c3c(cc(CN4CCOCC4)cc3c1=O)OC(c1cccnc1)C2 (single isomer, unassigned) [Example 58, N-(4-Chlorobenzyl)-9-(morpholin-4-ylmethyl)-7-oxo-2-(R or S)-pyridin-3-yl-2,3-dihydro-7H-[1,4]oxazino[2,3,4-ij]quinoline-6-carboxamide] | 570 nM and 270 nM
12 | Cn1ccnc1SCC1Cn2cc(C(=O)NCc3ccc(Cl)cc3)c(=O)c3cc(CN4CCOCC4)cc(c32)O1 (stereo not drawn) [Example 17] | 270 nM
13 | O=C(NCc1ccc(Cl)cc1)c1cn2c3c(cc(CCCO)cc3c1=O)OCC2(CO)CO [Example 32, N-(4-Chlorobenzyl)-3,3-bis(hydroxymethyl)-9-(3-hydroxypropyl)-7-oxo-2,3-dihydro-7H-[1,4]oxazino[2,3,4-ij]quinoline-6-carboxamide] | 3000 nM
14 | O=C(NCc1ccc(Cl)cc1)c1cn2c3c(cc(CN4CCOCC4)cc3c1=O)OC(CNCc1cccnc1)C2 (stereo not drawn) [Example 11, N-(4-Chlorobenzyl)-9-(4-morpholinylmethyl)-7-oxo-2-{[(3-pyridinylmethyl)amino]methyl}-2,3-dihydro-7H-[1,4]oxazino[2,3,4-ij]quinoline-6-carboxamide] | 540 nM
15 | O=C(NCc1ccc(Cl)cc1)c1cn2c3c(cc(CN4CCOCC4)cc3c1=O)OC(CSCC(O)CO)C2 (stereo not drawn) [Example 19, N-(4-Chlorobenzyl)-2-{[(2,3-dihydroxypropyl)sulfanyl]methyl}-9-(4-morpholinylmethyl)-7-oxo-2,3-dihydro-7H-[1,4]oxazino[2,3,4-ij]quinoline-6-carboxamide] | 570 nM
16 | O=C(NCc1ccc(Cl)cc1)c1cn2c3c(cc(CN4CCOCC4)cc3c1=O)OC(CO)C2 (single isomer, unassigned) [Example 20, N-(4-Chlorobenzyl)-2-(R or S)-(hydroxymethyl)-9-(4-morpholinylmethyl)-7-oxo-2,3-dihydro-7H-[1,4]oxazino[2,3,4-ij]quinoline-6-carboxamide] | 350 nM
17 | O=C(NCc1ccc(Cl)cc1)c1cn2c3c(cc(CN4CCOCC4)cc3c1=O)OC(CO)C2 (stereo not drawn) [Example 1, N-(4-Chlorobenzyl)-2-(hydroxymethyl)-9-(4-morpholinylmethyl)-7-oxo-2,3-dihydro-7H-[1,4]oxazino[2,3,4-ij]quinoline-6-carboxamide] | 610 nM
18 | O=C(NCc1ccc(Cl)cc1)c1cn2c3c(cc(CN4CCOCC4)cc3c1=O)OC(c1ccccn1)C2 (stereo not drawn) [Example 33, N-(4-Chlorobenzyl)-9-(4-morpholinylmethyl)-7-oxo-2-(2-pyridinyl)-2,3-dihydro-7H1-[1,4]oxazino[2,3,4-ij]quinoline-6-carboxamide] | 520 nM
19 | O=C(NCc1ccc(Cl)cc1)c1cn2c3c(cc(C#CCO)cc3c1=O)OCC2(CO)CO [Example 31, N-(4-Chlorobenzyl)-3,3-bis(hydroxymethyl)-9-(3-hydroxy-1-propynyl)-7-oxo-2,3-dihydro-7H-[1,4]oxazino[2,3,4-ij]quinoline-6-carboxamide] | 5000 nM
20 | O=C(NCc1ccc(Cl)cc1)c1cn2c3c(cc(CN4CCOCC4)cc3c1=O)OC(c1ccncc1)C2 (stereo not drawn) [Example 35, N-(4-Chlorobenzyl)-9-(4-morpholinylmethyl)-7-oxo-2-(4-pyridinyl)-2,3-dihydro-7H-[1,4]oxazino[2,3,4-ij]quinoline-6-carboxamide] | 610 nM
21 | O=C(NCc1ccc(Cl)cc1)c1cn2c3c(cc(CN4CCOCC4)cc3c1=O)OC(c1ccccn1)C2 (single isomer, unassigned) [Example 57, N-(4-Chlorobenzyl)-9-(morpholin-4-ylmethyl)-7-oxo-2-(R or S)-pyridin-2-yl-2,3-dihydro-7H-[1,4]oxazino[2,3,4-ij]quinoline-6-carboxamide] | 680 nM and 320 nM
22 | N#Cc1cccc(C2Cn3cc(C(=O)NCc4ccc(Cl)cc4)c(=O)c4cc(CN5CCOCC5)cc(c43)O2)c1 (stereo not drawn) [Example 36, N-(4-Chlorobenzyl)-2-(3-cyanophenyl)-9-(morpholin-4-ylmethyl)-7-oxo-2,3-dihydro-7H-[1,4]oxazino[2,3,4-ij]quinoline-6-carboxamide] | 420 nM
23 | O=C(NCc1ccc(Cl)cc1)c1cn2c3c(cc(CN4CCOCC4)cc3c1=O)OCC2CN1CCOCC1 (stereo not drawn) [Example 30, N-(4-Chlorobenzyl)-3,9-bis(4-morpholinylmethyl)-7-oxo-2,3-dihydro-7H-[1,4]oxazino[2,3,4-ij]quinoline-6-carboxamide] | 970 nM
24 | O=C(NCc1ccc(Cl)cc1)c1cn2c3c(cc(CN4CCOCC4)cc3c1=O)OC(c1cccs1)C2 (stereo not drawn) [Example 38, N-(4-Chlorobenzyl)-9-(morpholin-4-ylmethyl)-7-oxo-2-thien-2-yl-2,3-dihydro-7H-[1,4]oxazino[2,3,4-ij]quinoline-6-carboxamide] | 460 nM
